From paper PMC9127750, “Structure-based design of CDC42 effector interaction inhibitors for the treatment of cancer” (Cell reports, 2022)
Several values for one entry are separate records, joined by “and”; a condition that tells them apart may be missing. Equal entries are not always repeated.

System: WM3248 melanoma cells, 486 antibodies
Experiment: Reverse phase protein arrays (RPPA)
Assay type: cell-based, Human
Conditions: 10, normalized to 0
Text: Pellets were snap frozen in liquid nitrogen and shipped to MD Anderson Cancer Center core RPPA facility for RPPA analysis (Table S5). Three biological replicates for each sample were generated.
Nomenclatures on the RPPA heatmaps: name_of_antibody.species_of_antibody.status_of_antibody. V - antibody validated; C - validation of antibody in progress; Q - antibody nonspecific; E – under evaluation; antibodies raised in M - mouse, G - goat, R - rabbit, or T - rat.

CN(C)c1cccc(Nc2cc(-c3ccccc3)nc(C3CCNCC3)n2)c1 [ARN22089, N1,N1-dimethyl-N3-(6-phenyl-2-(piperidin-4-yl)pyrimidin-4-yl)benzene-1,3-diamine]
FoxO3a_pS318_S321.R.C Norm_10 Average (average): 1.029
G6PD.R.V Norm_10 Average (average): 1.034
GATA3.M.V Norm_10 Average (average): 1.281
GATA6.R.V Norm_10 Average (average): 1.018
GCLC.R.C Norm_10 Average (average): 0.996
GCLM.R.V Norm_10 Average (average): 1.023
GCN5L2.R.V Norm_10 Average (average): 0.928
GRB2.R.V Norm_10 Average (average): 0.887
GRB7.R.V Norm_10 Average (average): 0.924
GSK.3B.R.C Norm_10 Average (average): 0.899
GSK.3a.b.M.V Norm_10 Average (average): 1.031
GSK.3a.b_pS21_S9.R.V Norm_10 Average (average): 1.266
Gab2.R.V Norm_10 Average (average): 1.065
Gli1.R.C Norm_10 Average (average): 1.005
Gli3.R.C Norm_10 Average (average): 1.134
Glucocorticoid.Receptor.R.V Norm_10 Average (average): 1.119
Glutamate.D1.2.R.V Norm_10 Average (average): 1.156
Granzyme.B.R.V Norm_10 Average (average): 0.968
Grp75.R.C Norm_10 Average (average): 1.129
Gys.R.V Norm_10 Average (average): 0.931
Gys_pS641.R.V Norm_10 Average (average): 0.978
H2AX_pS139.R.C Norm_10 Average (average): 0.977
H2AX_pS140.M.C Norm_10 Average (average): 1.138
HER2.M.V Norm_10 Average (average): 1.033
HER2_pY1248.R.V Norm_10 Average (average): 0.915
HER3_pY1289.R.C Norm_10 Average (average): 1.047
HES1.R.V Norm_10 Average (average): 0.974
eEF2.R.C Norm_10 Average (average): 1.492
eEF2K.R.V Norm_10 Average (average): 1.201
eIF4E.R.V Norm_10 Average (average): 0.994
eIF4E_pS209.R.V Norm_10 Average (average): 0.960
eIF4G.R.C Norm_10 Average (average): 0.972
DNMT1.R.V Norm_10 (replicates 1-3): 1.003 and 1.020 and 1.147
DRP1.R.V Norm_10 (replicates 1-3): 0.964 and 0.992
DUSP4.R.V Norm_10 (replicates 1-3): 0.853 and 0.881 and 0.939
DUSP6.R.C Norm_10 (replicates 1-3): 1.409 and 0.561
DYRK1B.R.C Norm_10 (replicates 1-3): 0.895 and 0.964 and 0.986
Dvl3.R.V Norm_10 (replicates 1-3): 0.922 and 1.053 and 0.910
E2F1.R.V Norm_10 (replicates 1-3): 1.049 and 1.123 and 1.077
E.Cadherin.R.V Norm_10 (replicates 1-3): 0.791 and 0.958
EGFR.R.V Norm_10 (replicates 1-3): 0.866 and 1.059 and 1.002
EGFR_pY1068.R.C Norm_10 (replicates 1-3): 0.894 and 0.930 and 1.047
EGFR_pY1173.R.V Norm_10 (replicates 1-3): 1.016 and 0.963 and 0.929
EMA.M.C Norm_10 (replicates 1-3): 0.676 and 1.005
ENY2.M.C Norm_10 (replicates 1-3): 0.937 and 1.132
ER.a.R.V Norm_10 (replicates 1-3): 0.989 and 0.867 and 0.907
ER.a_pS118.R.V Norm_10 (replicates 1-3): 1.111 and 0.755 and 0.869
ERCC1.R.C Norm_10 (replicates 1-3): 0.934 and 1.208 and 0.991
ERCC5.R.C Norm_10 (replicates 1-3): 0.985 and 0.864
ERRalpha.R.V Norm_10 (replicates 1-3): 0.941 and 1.106 and 0.995
EVI1.R.V Norm_10 (replicates 1-3): 0.864 and 1.146 and 1.022
Elk1_pS383.R.C Norm_10 (replicates 1-3): 1.027 and 0.931
Enolase.1.R.V Norm_10 (replicates 1-3): 0.940 and 1.265 and 1.276
Enolase.2.R.V Norm_10 (replicates 1-3): 0.995 and 1.149 and 0.982
EphA2.R.V Norm_10 (replicates 1-3): 0.867 and 0.985 and 0.905
EphA2_pS897.R.C Norm_10 (replicates 1-3): 0.664 and 0.906 and 1.028
EphA2_pY588.R.C Norm_10 (replicates 1-3): 0.917 and 0.980 and 0.925
Erk5.R.V Norm_10 (replicates 1-3): 0.835 and 0.809 and 0.986
Ets.1.R.V Norm_10 (replicates 1-3): 1.099 and 1.361 and 1.457
FABP5.R.C Norm_10 (replicates 1-3): 0.950 and 1.278 and 1.483
FAK.R.C Norm_10 (replicates 1-3): 0.896 and 0.913 and 1.054
FAK_pY397.R.V Norm_10 (replicates 1-3): 0.925 and 1.035 and 0.946
FANCD2.R.V Norm_10 (replicates 1-3): 0.931 and 0.985 and 0.874
FASN.R.V Norm_10 (replicates 1-3): 1.108 and 0.851 and 0.928
FGF.basic.R.C Norm_10 (replicates 1-3): 0.849 and 0.905 and 1.085
FN14.R.C Norm_10 (replicates 1-3): 1.121
FOXM1.R.V Norm_10 (replicates 1-3): 0.803 and 0.992 (2×)
FOXO3.R.V Norm_10 (replicates 1-3): 0.977 and 1.253 and 1.014
FRS2.alpha_pY196.R.V Norm_10 (replicates 1-3): 0.953 and 2.062 and 1.103
FTO.R.V Norm_10 (replicates 1-3): 0.987 and 1.185 and 1.127
Fibronectin.R.V Norm_10 (replicates 1-3): 0.978 and 1.062 and 1.006
FoxO3a_pS318_S321.R.C Norm_10 (replicates 1-3): 0.963 and 1.140 and 0.984
G6PD.R.V Norm_10 (replicates 1-3): 0.932 and 1.169 and 1.001
GATA3.M.V Norm_10 (replicates 1-3): 1.235 and 1.401 and 1.207
GATA6.R.V Norm_10 (replicates 1-3): 1.020 and 1.082 and 0.952
GCLC.R.C Norm_10 (replicates 1-3): 0.939 and 0.967 and 1.083
GCLM.R.V Norm_10 (replicates 1-3): 0.965 and 1.111 and 0.992
GCN5L2.R.V Norm_10 (replicates 1-3): 0.997 and 0.898 and 0.890
GGPS1.M.V Norm_10 (replicates 1-3): 0.913 and 1.085 and 1.264
GRB2.R.V Norm_10 (replicates 1-3): 0.867 and 0.876 and 0.919
GRB7.R.V Norm_10 (replicates 1-3): 0.829 and 0.838 and 1.106
